The target in the assay is recombinant human His-ATG7 enzyme (Homo sapiens (Human), UniProt O95352). The experiment in a line: ATG7 Enzyme Assay (HTRF/FRET, ATG3-GST and Flag-Gabarap). Format: biochemical. To be noted: for inhibition at 0.123 µM / inhibition at 0.111 µM / inhibition at 0.069 µM: read-out: Percent Inhibition; for inhibition at 0.111 µM: Concentration 0.111 μM; for inhibition at 0.069 µM: Concentration 0.069 μM. In outline:
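0.15 nM His-ATG7 was reacted with 5 nM ATG3-GST, 5 nM Flag-Gabarap and 10 μM ATP in HEPES pH 7.5 containing MgCl2, GSH and TCEP for 105 min at 24° C, then stopped with EDTA/KF. Eu-anti-Flag and anti-GST-APC HTRF was read after 2 h. Results are given as single-concentration % inhibition or IC50.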
A general note: Time-resolved FRET reads energy transfer from a long-lived donor to a nearby acceptor.

The structures appear in SMILES notation. A value given as a limit tells only on which side of the number the result lay.

Chain of recombinant human His-ATG7 enzyme (O95352 whole entry): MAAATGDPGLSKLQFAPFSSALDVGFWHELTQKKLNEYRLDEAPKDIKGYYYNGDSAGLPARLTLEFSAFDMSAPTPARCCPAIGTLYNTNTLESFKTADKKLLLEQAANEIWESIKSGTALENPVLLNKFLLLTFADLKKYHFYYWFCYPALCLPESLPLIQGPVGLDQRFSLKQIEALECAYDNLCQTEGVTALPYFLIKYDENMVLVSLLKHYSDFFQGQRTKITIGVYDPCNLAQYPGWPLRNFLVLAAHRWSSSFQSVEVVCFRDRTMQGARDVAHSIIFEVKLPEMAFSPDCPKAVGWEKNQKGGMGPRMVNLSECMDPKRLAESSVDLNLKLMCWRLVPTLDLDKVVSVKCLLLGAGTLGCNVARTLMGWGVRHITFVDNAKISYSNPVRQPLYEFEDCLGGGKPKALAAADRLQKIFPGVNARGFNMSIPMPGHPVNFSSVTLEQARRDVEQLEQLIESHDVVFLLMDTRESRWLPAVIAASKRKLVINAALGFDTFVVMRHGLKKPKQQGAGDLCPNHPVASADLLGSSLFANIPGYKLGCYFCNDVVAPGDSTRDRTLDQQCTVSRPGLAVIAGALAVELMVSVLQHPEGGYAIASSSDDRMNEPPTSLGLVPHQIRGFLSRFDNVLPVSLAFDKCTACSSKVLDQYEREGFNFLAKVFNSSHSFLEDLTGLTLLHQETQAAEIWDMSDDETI

Consider `Nc1ncnc2c1c(Sc1ccc(Cl)cc1Cl)nn2[C@@H]1O[C@H](COS(N)(=O)=O)[C@@H](O)[C@H]1O` [Compound I-34, [(2R,3S,4R,5R)-5-{4-amino-3-[(2,4-dichlorophenyl)sulfanyl]-1H-pyrazolo[3,4-d]pyrimidin-1-yl}-3,4-dihydroxytetrahydrofuran-2-yl]methyl sulfamate], for which the concentration for half-maximal inhibition (IC50) – broadly, the midpoint of a concentration-inhibition curve – is 50 to 100 nM. For the same compound, the inhibition (as a rule, the percentage by which the read-out fell short of the control) at 0.123 µM (Concentration 0.123 μM) worked out at 70%.
The matching figures for `Nc1ncnc2c1c(-c1nccs1)nn2[C@@H]1O[C@H](COS(N)(=O)=O)[C@@H](O)[C@H]1O` [Compound I-30, {(2R,3S,4R,5R)-5-[4-amino-3-(1,3-thiazol-2-yl)-1H-pyrazolo[3,4-d]pyrimidin-1-yl]-3,4-dihydroxytetrahydrofuran-2-yl}methyl sulfamate]: greater than 500 nM and 15%.
The matching figures for `Nc1ncnc2c1c(-c1ncco1)nn2[C@@H]1O[C@H](COS(N)(=O)=O)[C@@H](O)[C@H]1O` [Compound I-57, {(2R,3S,4R,5R)-5-[4-amino-3-(1,3-oxazol-2-yl)-1H-pyrazolo[3,4-d]pyrimidin-1-yl]-3,4-dihydroxytetrahydrofuran-2-yl}methyl sulfamate]: greater than 500 nM and 13%.
In the same order, the values of `Nc1ncnc2c1c(SC1CC1)nn2[C@@H]1O[C@H](COS(N)(=O)=O)[C@@H](O)[C@H]1O` [Compound I-65, {(2R,3S,4R,5R)-5-[4-amino-3-(cyclopropylsulfanyl)-1H-pyrazolo[3,4-d]pyrimidin-1-yl]-3,4-dihydroxytetrahydrofuran-2-yl}methyl Sulfamate] are less than 20 nM and 89%.
Take `CC(O)c1nn([C@@H]2O[C@H](COS(N)(=O)=O)[C@@H](O)[C@H]2O)c2ncnc(N)c12` (single isomer, unassigned) [Compound I-23a, [(2R,3S,4R,5R)-5-{4-amino-3-[(1R)-1-hydroxyethyl]-1H-pyrazolo[3,4-d]pyrimidin-1-yl}-3,4-dihydroxytetrahydrofuran-2-yl]methyl sulfamate or [(2R,3S,4R,5R)-5-{4-amino-3-[(1S)-1-hydroxyethyl]-1H-pyrazolo[3,4-d]pyrimidin-1-yl}-3,4-dihydroxytetrahydrofuran-2-yl]methyl Sulfamate]: the IC50 is greater than 500 nM. For the same compound, the “Percent Inhibition” value (Concentration 0.123 μM) amounted to 19%.
For `Cc1cccc(Sc2nn([C@@H]3O[C@H](COS(N)(=O)=O)[C@@H](O)[C@@H]3F)c3ncnc(N)c23)n1` [Compound I-102, [(2R,3R,4S,5R)-5-{4-amino-3-[(6-methylpyridin-2-yl)sulfanyl]-1H-pyrazolo[3,4-d]pyrimidin-1-yl}-4-fluoro-3-hydroxytetrahydrofuran-2-yl]methyl sulfamate], the concentration for half-maximal inhibition (IC50) was in the range of 50 to 100 nM and the inhibition at 0.111 µM stood at 68%.
For the compound `Nc1ncnc2c1cnn2[C@@H]1O[C@H](COS(N)(=O)=O)[C@@H](O)[C@H]1O` [Compound I-48, [(2R,3S,4R,5R)-5-(4-amino-1H-pyrazolo[3,4-d]pyrimidin-1-yl)-3,4-dihydroxytetrahydrofuran-2-yl]methyl sulfamate], the IC50 was in the range of 100 to 500 nM and the inhibition at 0.069 µM is 16%.
With `Nc1ncnc2c1c(OCc1ccccc1)nn2[C@@H]1O[C@H](COS(N)(=O)=O)[C@@H](O)[C@H]1O` [Compound I-76, {(2R,3S,4R,5R)-5-[4-amino-3-(benzyloxy)-1H-pyrazolo[3,4-d]pyrimidin-1-yl]-3,4-dihydroxytetrahydrofuran-2-yl}methyl Sulfamate], the half-inhibitory concentration (IC50) fell in the range of 100 to 500 nM. In addition, under “Concentration 0.123 μM”, the inhibition at 0.123 µM was 31%.
In the case of `Nc1ncnc2c1c(COCc1ccccc1)nn2[C@@H]1O[C@H](COS(N)(=O)=O)[C@@H](O)[C@H]1O` [Compound I-4, [(2R,3S,4R,5R)-5-{4-amino-3-[(benzyloxy)methyl]-1H-pyrazolo[3,4-d]pyrimidin-1-yl}-3,4-dihydroxytetrahydrofuran-2-yl]methyl Sulfamate], the 50% inhibitory concentration (IC50) was 100 to 500 nM and the inhibition at 0.069 µM was 32%.
Take `COc1ccc(Sc2nn([C@H]3C[C@H](O)[C@@H](COS(N)(=O)=O)O3)c3ncnc(N)c23)c(F)c1` [Compound I-178, [(2R,3S,5R)-5-{4-amino-3-[(2-fluoro-4-methoxyphenyl)sulfanyl]-1H-pyrazolo[3,4-d]pyrimidin-1-yl}-3-hydroxytetrahydrofuran-2-yl]methyl sulfamate]: the IC50 is 20 to 50 nM and the inhibition at 0.111 µM was determined as 74%.
As for `N#Cc1nn([C@@H]2O[C@H](COS(N)(=O)=O)[C@@H](O)[C@H]2O)c2ncnc(N)c12` [Compound I-13, [(2R,3S,4R,5R)-5-(4-amino-3-cyano-1H-pyrazolo[3,4-d]pyrimidin-1-yl)-3,4-dihydroxytetrahydrofuran-2-yl]methyl Sulfamate], the IC50 lay within 20 to 50 nM. Moreover, the inhibition at 0.123 µM (Concentration 0.123 μM) was 80%.
In the case of `Cc1ccc(CSc2nn([C@@H]3O[C@H](COS(N)(=O)=O)[C@@H](O)[C@H]3O)c3ncnc(N)c23)cc1` [Compound I-41, [(2R,3S,4R,5R)-5-{4-amino-3-[(4-methylbenzyl)sulfanyl]-1H-pyrazolo[3,4-d]pyrimidin-1-yl}-3,4-dihydroxytetrahydrofuran-2-yl]methyl sulfamate], the IC50 was 20 to 50 nM and the inhibition at 0.111 µM turned out to be 85%.
The matching figures for `CCC(C)Sc1nn([C@@H]2O[C@H](COS(N)(=O)=O)[C@@H](O)[C@@H]2F)c2ncnc(N)c12` (single isomer, unassigned) [Compound I-136b]: 50 to 100 nM and 61%.
As for `Nc1ncnc2c1c(SCc1cccnc1)nn2[C@@H]1O[C@H](COS(N)(=O)=O)[C@@H](O)[C@@H]1F` [Compound I-121, [(2R,3R,4S,5R)-5-{4-amino-3-[(pyridin-3-ylmethyl)sulfanyl]-1H-pyrazolo[3,4-d]pyrimidin-1-yl}-4-fluoro-3-hydroxytetrahydrofuran-2-yl]methyl sulfamate], the IC50 lay in the range of 50 to 100 nM and the inhibition at 0.111 µM worked out at 65%.
In the same order, the values of `Nc1ncnc2c1c(C(F)F)nn2[C@H]1C[C@H](O)[C@H](COS(N)(=O)=O)O1` [Compound I-217, {(2S,3S,5R)-5-[4-amino-3-(difluoromethyl)-1H-pyrazolo[3,4-d]pyrimidin-1-yl]-3-hydroxytetrahydrofuran-2-yl}methyl Sulfamate] are 100 to 500 nM and 34%.
The matching figures for `Cc1ccc(F)c(Sc2nn([C@H]3C[C@H](O)[C@@H](COS(N)(=O)=O)O3)c3ncnc(N)c23)c1` [Compound I-191, [(2R,3S,5R)-5-{4-amino-3-[(2-fluoro-5-methylphenyl)sulfanyl]-1H-pyrazolo[3,4-d]pyrimidin-1-yl}-3-hydroxytetrahydrofuran-2-yl]methyl sulfamate]: 50 to 100 nM and 63%.
For `COc1ccc(CSc2nn([C@@H]3O[C@H](COS(N)(=O)=O)[C@@H](O)[C@H]3O)c3ncnc(N)c23)cc1` [Compound I-38, [(2R,3S,4R,5R)-5-{4-amino-3-[(4-methoxybenzyl)sulfanyl]-1H-pyrazolo[3,4-d]pyrimidin-1-yl}-3,4-dihydroxytetrahydrofuran-2-yl]methyl sulfamate], the IC50 lay in the range of 20 to 50 nM. Further, the inhibition at 0.123 µM (Concentration 0.123 μM) is 84%.
Regarding `Nc1ncnc2c1c(SC1CCCCC1)nn2[C@@H]1O[C@H](COS(N)(=O)=O)[C@@H](O)[C@@H]1F` [Compound I-122, {(2R,3R,4S,5R)-5-[4-amino-3-(cyclohexylsulfanyl)-1H-pyrazolo[3,4-d]pyrimidin-1-yl]-4-fluoro-3-hydroxytetrahydrofuran-2-yl}methyl sulfamate], the IC50 is 20 to 50 nM and the inhibition at 0.111 µM turned out to be 80%.
In the same order, the values of `Nc1ncnc2c1c(SCC1CC1)nn2[C@H]1C[C@H](O)[C@@H](COS(N)(=O)=O)O1` [Compound I-202, [(2R,3S,5R)-5-{4-amino-3-[(cyclopropylmethyl)sulfanyl]-1H-pyrazolo[3,4-d]pyrimidin-1-yl}-3-hydroxytetrahydrofuran-2-yl]methyl Sulfamate] are 50 to 100 nM and 62%.
Regarding `CN(C)CCSc1nn([C@@H]2O[C@H](COS(N)(=O)=O)[C@@H](O)[C@H]2O)c2ncnc(N)c12` [Compound I-80, [(2R,3S,4R,5R)-5-(4-amino-3-{[2-(dimethylamino)ethyl]sulfanyl}-1H-pyrazolo[3,4-d]pyrimidin-1-yl)-3,4-dihydroxytetrahydrofuran-2-yl]methyl sulfamate], the IC50 was in the range of 100 to 500 nM. Moreover, the inhibition at 0.123 µM (Concentration 0.123 μM) worked out at 51%.
For `Nc1ncnc2c1c(Sc1cccc(Cl)c1)nn2[C@@H]1O[C@H](COS(N)(=O)=O)[C@@H](O)[C@@H]1F` [Compound I-106, [(2R,3R,4S,5R)-5-{4-amino-3-[(3-chlorophenyl)sulfanyl]-1H-pyrazolo[3,4-d]pyrimidin-1-yl}-4-fluoro-3-hydroxytetrahydrofuran-2-yl]methyl Sulfamate], the concentration for half-maximal inhibition (IC50) was 20 to 50 nM. In addition, the inhibition at 0.123 µM (Concentration 0.123 μM) came out at 78%.
As to `CSc1nn([C@H]2C[C@H](O)[C@H](COS(N)(=O)=O)O2)c2ncnc(N)c12` [Compound I-219, {(2S,3S,5R)-5-[4-amino-3-(methylsulfanyl)-1H-pyrazolo[3,4-d]pyrimidin-1-yl]-3-hydroxytetrahydrofuran-2-yl}methyl Sulfamate], the IC50 is 100 to 500 nM and the inhibition at 0.111 µM turned out to be 48%.

These data come from patent US10865208B2, “ATG7 inhibitors and the uses thereof” (Millennium Pharmaceuticals, Inc., priority 2016, dated 2020).
